molecular target: LRRK2(G2019S mutation, GST-LRRK2 (amino acids 970-2527)) (Homo sapiens (Human), UniProt Q5S007, G2019S); assay: LRRK2 Km ATP LanthaScreen Assay; format: biochemical; conditions: Km ATP LanthaScreen TR-FRET; G2019S LRRK2, LRRKtide substrate; mean IC50 of several tests
Excerpt: Unless otherwise noted, all LRRK2 IC50 data presented in tables refers to the LRRK2 Km ATP LanthaScreen™ Assay that is described in the Biological Assay section.
The data presented for the Km ATP LanthaScreen™ Assay represents mean IC50 values based on several test results and may have reasonable deviations depending on the specific conditions and reagents used. Reagents for the LRRK2 Km ATP LanthaScreen™ Assay were purchased from Life Technologies Corporation.
LRRK2 Km ATP LanthaScreen™ Assay
• a) 400 nl of a 1:2.15 serial dilution of test compound (98 μM top assay concentration) is spotted via Labcyte Echo to certain wells in a 384 well black, untreated plate. Control wells contain 400 nl of either DMSO or 400 nl of a known inhibitor in DMSO. • b) 10 μl of a 2.5 nM LRRK2(G2019S mutation, GST-LRRK2 (amino acids 970-2527)) enzyme solution in 1× assay buffer (50 mM Tris pH 8.5, 10 mM MgCl2, 0.01% Brij-35, 1mM EGTA, 2 mM DTT, 0.05 mM NaVO4) is added to all wells. • c) A 30 minute room temperature incubation is followed by addition of 10 μl of 800 nM fluorescein labeled LRRKtide peptide substrate and 186 μM ATP solution in 1× assay buffer to all wells. • d) After a 60 minute room temperature incubation, 20 μl of TR-FRET Dilution Buffer (Invitrogen PV3756B) containing 4 nM Tb-labeled anti-phospho LRRKtide antibody and 20 mM EDTA is added to all wells. • e) Plates are incubated at room temperature for 1 hour and read on an Envision™ multi-mode plate reader with LanthaScreen™ settings. Results are analysed using Assay Data Analyzer.

Chain of LRRK2(G2019S mutation, GST-LRRK2 (amino acids 970-2527)) (Q5S007 970-2527 G2019S): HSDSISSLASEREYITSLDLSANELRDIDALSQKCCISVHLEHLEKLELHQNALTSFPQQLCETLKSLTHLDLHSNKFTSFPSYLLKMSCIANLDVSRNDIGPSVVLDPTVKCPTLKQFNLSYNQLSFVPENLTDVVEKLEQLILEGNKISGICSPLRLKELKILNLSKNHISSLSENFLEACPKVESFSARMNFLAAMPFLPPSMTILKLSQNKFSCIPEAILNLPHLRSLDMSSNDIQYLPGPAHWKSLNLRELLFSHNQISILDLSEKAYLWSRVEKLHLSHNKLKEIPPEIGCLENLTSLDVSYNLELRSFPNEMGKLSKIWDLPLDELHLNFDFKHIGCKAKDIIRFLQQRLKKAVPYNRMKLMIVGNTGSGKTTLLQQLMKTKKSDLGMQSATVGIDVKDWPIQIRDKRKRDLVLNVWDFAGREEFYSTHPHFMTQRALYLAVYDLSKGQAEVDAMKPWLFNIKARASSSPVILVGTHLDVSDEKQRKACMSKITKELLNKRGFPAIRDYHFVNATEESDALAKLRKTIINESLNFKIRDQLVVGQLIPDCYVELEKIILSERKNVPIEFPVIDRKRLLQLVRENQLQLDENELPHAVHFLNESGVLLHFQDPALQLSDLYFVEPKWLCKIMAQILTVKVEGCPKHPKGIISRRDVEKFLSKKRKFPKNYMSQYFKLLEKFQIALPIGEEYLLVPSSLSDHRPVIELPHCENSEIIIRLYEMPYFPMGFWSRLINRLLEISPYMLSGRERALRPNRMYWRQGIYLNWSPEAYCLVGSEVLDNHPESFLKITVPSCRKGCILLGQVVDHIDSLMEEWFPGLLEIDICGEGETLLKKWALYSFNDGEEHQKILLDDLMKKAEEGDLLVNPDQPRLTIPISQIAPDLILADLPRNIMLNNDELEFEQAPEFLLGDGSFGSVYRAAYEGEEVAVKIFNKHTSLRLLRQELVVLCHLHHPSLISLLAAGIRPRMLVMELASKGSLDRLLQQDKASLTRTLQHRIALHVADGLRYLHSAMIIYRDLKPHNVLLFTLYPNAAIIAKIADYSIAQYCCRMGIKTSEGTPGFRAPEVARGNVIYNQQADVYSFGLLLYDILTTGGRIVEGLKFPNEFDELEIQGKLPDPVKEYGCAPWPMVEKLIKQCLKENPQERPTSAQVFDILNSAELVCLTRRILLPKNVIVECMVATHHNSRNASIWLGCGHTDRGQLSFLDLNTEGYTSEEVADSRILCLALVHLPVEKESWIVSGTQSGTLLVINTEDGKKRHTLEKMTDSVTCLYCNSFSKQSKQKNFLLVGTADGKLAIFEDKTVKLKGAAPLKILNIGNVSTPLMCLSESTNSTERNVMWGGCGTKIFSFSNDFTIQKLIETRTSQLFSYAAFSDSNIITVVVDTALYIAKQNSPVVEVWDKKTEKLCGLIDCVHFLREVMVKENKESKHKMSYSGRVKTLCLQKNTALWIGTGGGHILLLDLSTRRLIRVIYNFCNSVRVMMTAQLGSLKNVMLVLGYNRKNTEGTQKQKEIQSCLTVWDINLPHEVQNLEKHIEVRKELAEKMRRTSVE

Row | SMILES | IC50 [nM]
1 | CC(C)Oc1cc(F)c2[nH]nc(-c3ccnc(N4CCOCC4)c3)c2c1 [Example 4] | 12
2 | Fc1cc(-c2cnccn2)cc2c(-c3ccnc(N4CCOCC4)c3)n[nH]c12 [Example 6] | 58
3 | Cc1cc(-c2cnn(C)c2)cc2c(-c3ccnc(N4CCOCC4)c3)n[nH]c12 [Example 7] | 199
4 | Cn1cc(-c2cc(Cl)c3[nH]nc(-c4ccnc(N5CCOCC5)c4)c3c2)cn1 [Example 8] | 309
5 | Cn1cc(-c2cc(F)c3[nH]nc(-c4ccnc(N5CC(F)C5)c4)c3c2)cn1 [Example 10] | 8.2
6 | Cc1cc(-c2cnn(C)c2)cc2c(-c3ccnc(N4CCN(S(C)(=O)=O)CC4)c3)n[nH]c12 [Example 11] | 218
7 | Cc1cc(-c2cnn(C)c2)cc2c(-c3ccnc(N4CC[C@@H](F)C4)c3)n[nH]c12 [Example 12] | 380

From patent publication US9809568B2, “Compounds inhibiting leucine-rich repeat kinase enzyme activity” (Merck Sharp & Dohme Corp., priority 2013, dated 2017)
